# According to patent publication US9441263B2, “Ribosomal targets for antibiotic drug discovery” (Cornell University, priority 2011, dated 2016):
# “Also recorded” adds a separate entry of the source. Starred links: 1 amine or outer side, 2 acyl side, 3 side chain; linkers in the order of their positions; H or OH if unused. Positions of bridges follow the written chain, without caps; N, C: chain ends. Non-standard residues stand in square brackets, D forms with d. Residues, ends and D or L forms follow the SMILES beside them. *: point of attachment. X1 = NC1=N[C@@H]([C@H](N[*:1])C(=O)[*:2])C[C@H](O)N1; ΔAla(Z-3-ureido) = NC(=O)N/C=C(\N)C(=O)O; β3hOrn = NCCC[C@H](N)CC(=O)*; Dap = NC[C@H](N)C(=O)O
# Experiments:
# [1] = test system: Cy3-S13 / Cy5-L1 (T202C) ribosome complexes; test: Single-molecule L1-S13 FRET assay (ribosome conformational states); type: biochemical, E. coli
# Description: Generation of Site-Specifically Labeled 30S Subunits and 50S Subunits.
# Ribosomal protein S13 was PCR-cloned from E. coli strain K12 genomic DNA into the pPROEX HTb vector with a TEV-cleavable His6-tag and a 12-residue peptide encoding the S6 epitope for the Sfp phosphopantetheinyl transferase reaction (Yin 2006), fused at the N terminus. Following transformation of this plasmid into an E. coli ΔS13 knockout strain (Cukras 2005), cells were cultured and ribosomes were harvested as previously described (Wang 2011). Pure 30S subunits were isolated via sucrose gradient centrifugation in a low magnesium buffer (20 mM HEPES pH 7.5, 50 mM KCl, 10 mM NH4Cl, 0.5 mM EDTA, 6 mM BME, 1 mM MgCl2). 30S subunits containing Sfp-tagged S13 were isolated from this population by cobalt affinity chromatography (Clontech). Subsequently, the Sfp tag was enzymatically labeled and the His6-tag was enzymatically removed in a buffer containing 20 mM HEPES, pH 7.5, 100 mM KCl, 10 mM MgCl, and 6 mM BME. 20 μM N-Sfp-S13 30S subunits, 5 μM TEV protease, 250 μM Cy3-CoA and 25 μM Sfp were incubated for 24 h at 18° C. Sfp enzyme, TEV protease and unbound Cy3-CoA were then removed by filtration over a 100K membrane (Millipore). Prior to 70S complex formation, ribosomes were buffer exchanged into Tris-polymix buffer (Munro 2010c). 50S subunits labeled with Cy5-L1 (T202C) were prepared and purified as previously described (Munro 2010b).
# Preparation of L1-S13 FRET Ribosome Complexes with tRNA^fMet or tRNA^Phe in the P Site.
# Cy3-S13 30S and Cy5-L1 50S subunits were heat activated at 42° C. for 10 min in Tris-polymix Mg^2+ buffer and ribosomes were then initiated with fMet-tRNA^fMet or NAc-Phe-tRNA^Phe as previously described (Munro 2010c).
# Single-Molecule L1-S13 FRET Assay.
# All single-molecule FRET experiments were performed at room temperature in Tris-Polymix with 5 mM Mg^2+ buffer as previously described (Wang 2011), where oxygen scavenging and triplet-state quenching systems were employed (Dave 2009). Following surface immobilization (Munro 2007), the ribosome-bound, P-site tRNA was deacylated by incubation with 2 mM puromycin for 10 min at room temperature. The smFRET data were acquired by directly exciting the Cy3 fluorophore at 532 nm (LaserQuantum) while Cy3 and Cy5 intensities were simultaneously recorded in Metamorph (Molecular Devices) with 40 ms integration time. The data were analyzed in MATLAB (MathWorks) and plotted in Origin (OriginLab) as previously described (Munro 2007).
# wild-type ribosomes = test: Single-molecule FRET tRNA incorporation (aa-tRNA selection) assay, wild-type ribosomes; type: biochemical, E. coli
# Description: (§1) Single-Molecule FRET tRNA Incorporation Assay.
# The process of tRNA selection on the ribosome was monitored using single-molecule FRET by stropped-flow injection of a 10 nM solution of ternary complex (EF-Tu(GTP)·aa-tRNA) containing Phe-tRNA^Phe (Cy5-acp^3U47) to surface-immobilized ribosome complexes containing deacylated tRNA^fMet (Cy3-s^4U8) in the P site as previously described (Geggier 2010). Fluorescence and FRET traces were extracted from video and selected for analysis using automated analysis software implemented in MATLAB (MathWorks) using the segmental k-means algorithm (Qin, 1996). Complete accommodation of Phe-tRNA^Phe into the A site was marked by the first observation of a 400 ms dwell in a high ([…]) FRET state, structurally assigned to the “classical” pre-translocation complex configuration through previous investigations (Geggier 2010). Individual experiments, in which approximately 100 accommodation events were obtained, were performed in triplicate. The mean extent of accommodation and standard deviations are plotted as a function of time. Wild type and mutant ribosomes for these experiments were purified as previously described (Feldman 2010).
# A1408G mutant ribosomes [2] = test: Single-molecule FRET tRNA incorporation (aa-tRNA selection) assay, A1408G mutant ribosomes; type: biochemical, E. coli
# Excerpt: (§2) Purification of A1408G Ribosomes.
# (§3) Wild-type ribosomes and ribosomes bearing A1408G mutation were purified from a Δ7prrn E. coli MG1655 strain (RecA-) for single-molecule translocation and recycling experiments. The A1408G neomycin resistance mutation was introduced into a […] (KanR, SpecR) plasmid containing an rrnB operon (Komoda 2006) using Quickchange II site-directed mutagenesis (Stratagene). Wild-type and A1408G containing pRB102 plasmids (Komoda 2006) were then swapped into a Δ7prrn E. coli MG1655 (pKK3535, AmpR; ptRNA67, SpecR) strain. Tightly-coupled 70S ribosomes were purified from these strains in Tris-polymix buffer as previously described (Munro 2007).
# as §1
# The process of tRNA selection on the ribosome was monitored using single-molecule FRET by stropped-flow injection of a 10 nM solution of ternary complex (EF-Tu(GTP)·aa-tRNA) containing Phe-tRNA^Phe (Cy5-acp^3U47) to surface-immobilized ribosome complexes containing deacylated tRNA^fMet (Cy3-s^4U8) in the P site as previously described (Geggier 2010). Fluorescence and FRET traces were extracted from video and selected for analysis using automated analysis software implemented in MATLAB (MathWorks) using the segmental k-means algorithm (Qin, 1996). […]
# [3] = test system: wild-type pre-translocation ribosome complexes; test: Single-molecule translocation assay (EF-G catalyzed), wild-type ribosome complexes; type: biochemical, E. coli; conditions: wild-type ribosomes
# Description: (§4) Single-Molecule Translocation Assay.
# (§5) Fluorescence-based, single-molecule translocation assays were carried out as previously described (Munro 2010c) on either wild-type or A1408G mutant pre-translocation ribosome complexes. Experiments were performed in Tris-polymix buffer (pH 7.5, 5 mM Mg(OAc)2) and analyzed as previously described (Munro 2010c; Wang 2011), plotting the fraction of translocating molecules as a function of time.
# [4] = test system: A1408G mutant pre-translocation ribosome complexes; test: Single-molecule translocation assay (EF-G catalyzed), A1408G ribosome complexes; type: biochemical, E. coli
# Excerpt: as §2, §3, §4, §5
# [5] = test system: wild-type 70S ribosome complexes; test: Single-molecule ribosome recycling assay (loss of Cy5-labeled L1 fluorescence), wild-type; type: biochemical, E. coli; conditions: wild-type ribosomes; neomycin 0.1-100 μM
# Excerpt: (§6) As described in the examples, this invention provides single-molecule assays for ribosome recycling which comprises surface-immobilizing a ribosome labeled on the 50S subunit in the presence of tRNA, RRF and EF-G under translation conditions; and monitoring changes in the signal from the label, wherein a change in the signal indicates recycling or lack thereof. For example, this assay can be conducted in solution or using smFRET like imaging techniques (following fluorescence decay), with the label on the ribosome being a fluorophore.
# (§7) Single-Molecule Fluorescence Experiments.
# (§8) All single-molecule fluorescence experiments were performed at room temperature in an MES-Polymix buffer that resembled the crystallization condition (50 mM MES, pH 6.5, 5.0 mM MgCl2, 350 mM NH4Cl, 5.0 mM putrescine, 5.0 mM spermidine, 5 mM (3-mercaptoethanol and 0.5 mM EDTA). Oxygen scavenging and triplet-state quenching systems used were as previously described (Dave 2009). The smFRET data were acquired with Metamorph (Molecular Device), and analyzed in MATLAB (Mathwork) and QuB (www.qub.buffalo.edu) as previously described (Munro 2010a,b). Subunit release was monitored by directly exciting the Cy5 fluorophore within surface-immobilized ribosome complexes (Coherent) at 10 mW laser power. […] Changes in fluorescence intensity were analyzed and plotted in Origin (OriginLab).
# A1408G mutant ribosomes [6] = test: Single-molecule ribosome recycling assay (loss of Cy5-labeled L1 fluorescence), A1408G; type: biochemical, E. coli; conditions: neomycin 0.1-100 μM
# Excerpt: as §6
# Purification of A1408G Ribosomes. […]
# as §7, §8
# [7] = test system: wild-type pre-translocation ribosome complexes; conditions: Feldman 2010; cited from earlier work
# [8] = deacylated tRNA^fMet in the P site, no A-site tRNA, EF-G with GDPNP
molecule,measurement,setting,value
NCCC[C@H](N)CC(=O)N[C@H]1CNC(=O)[C@H]([C@H]2C[C@H](O)NC(N)=N2)NC(=O)/C(=C/NC(N)=O)NC(=O)[C@H](CO)NC(=O)[C@H](CO)NC1=O [viomycin] (β3hOrn-[Dap]SS[ΔAla(Z-3-ureido)][X1]; lactam 1-C),FRET state stabilized (L1-S13),[1]; [8],high-FRET state was also favored; also recorded: rotated state
neomycin,selection of cognate tRNA,"wild-type ribosomes; 100 nM neomycin, cognate (UUC) codon",negligible effects
same,rates of near-cognate aa-tRNA accommodation,"wild-type ribosomes; 100 nM neomycin, near-cognate (UCU) codon",substantially increased
same,selection of both cognate and near-cognate tRNA,wild-type ribosomes; 20 μM neomycin,significantly attenuated
same,miscoding effects / incorporation of near-cognate tRNA,A1408G mutant ribosomes [2]; 100 nM neomycin,reduced; also recorded: almost entirely suppressed
same,selection (incorporation) of cognate and near-cognate tRNA,A1408G mutant ribosomes [2]; 20 μM neomycin,both reduced; also recorded: Inhibition persisted
same,concentration at which substrate translocation is blocked,[3],above 1 μM
same,EF-G catalyzed translocation,"[4]; A1408G mutant background, neomycin 0.01-100 μM, normalized to no drug",inhibits EF-G catalyzed translocation in a concentration dependent manner
same,concentration at which substrate translocation is blocked,[4]; A1408G ribosomes,above 1 μM
same,ribosome recycling mediated by RRF and EF-G,[5],inhibited ribosome recycling
same,"ribosome recycling catalyzed by RRF, EF-G and GTP",A1408G mutant ribosomes [6],"inhibits the process of ribosome recycling catalyzed by RRF, EF-G and GTP in a concentration-dependent manner; also recorded: inhibited ribosome recycling"
same,ribosome conformation stabilized (L1-S13 FRET),"[1]; figure title, tRNA^fMet or tRNA^Phe in the P site",stabilizes an intermediate conformation of the ribosome
same,FRET state stabilized (L1-S13),"[1]; higher neomycin concentrations (>1 μM), deacylated tRNA^fMet in the P site",stabilized a ribosome configuration exhibiting an intermediate FRET value
same,FRET state favored (L1-S13),"[1]; low neomycin concentrations (<100 nM), deacylated tRNA^fMet in the P site",low-FRET state was favored
same,neomycin concentration inhibiting translocation as potently as viomycin,[7],higher than 100 nM
"RRF: ribosome recycling factor, purified from E. coli, C-terminal hexa-histidine tagged",FRET state stabilized (L1-S13),[1]; [8],high-FRET state was stabilized; also recorded: high-FRET rotated state
EF-G: GTPase elongation factor-G,FRET state stabilized (L1-S13),[1]; [8],"high-FRET state was stabilized; also recorded: high-FRET, rotated state"
